Measured values: ChEMBL document CHEMBL1201862, “PubChem BioAssay data set” (2004)
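Briefly, cells in 96-well plates were exposed to five compound concentrations for 48 h, and endpoints were estimated by linear interpolation. The concentration for 50% growth inhibition is given as GI50.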 Calls of active or inactive are those of the source. Rule as the data show it: active = GI50 up to about 1.1 µM and inactive = higher.

What was measured:
Experiment in all cases: NCI tumour cell line growth inhibition, 48 h
[1] = tested on: DU-145
[2] = tested on: CCRF-CEM
[3] = tested on: EKVX
[4] = tested on: IGROV-1
[5] = tested on: MOLT-4
[6] = tested on: HT-29
[7] = tested on: RPMI-8226
[8] = tested on: K562
[9] = tested on: A498
[10] = tested on: RXF 393
[11] = tested on: TK-10
[12] = tested on: HCT-116
[13] = tested on: NCI-H522
[14] = tested on: MDA-N
[15] = tested on: HL-60
[16] = tested on: NCI-H23
[17] = tested on: A549
[18] = tested on: UACC-62
[19] = tested on: HOP-92

Row | Compound | GI50 [1] | GI50 [2] | GI50 [3] | GI50 [4] | GI50 [5] | GI50 [6] | GI50 [7] | GI50 [8] | GI50 [9] | GI50 [10] | GI50 [11] | GI50 [12] | GI50 [13] | GI50 [14] | GI50 [15] | GI50 [16] | GI50 [17] | GI50 [18] | GI50 [19]
1 | COc1ccc2oc(=N)c(C(=O)NCc3ccccc3)cc2c1 | 24.3 µM (inactive) | 62.1 µM (inactive) | 31.2 µM (inactive) | 19.9 µM (inactive) | 46.3 µM (inactive) | 34.7 µM (inactive) | 45 µM (inactive) | 41.6 µM (inactive) | 15.2 µM (inactive) | 16.8 µM (inactive) | 22.6 µM (inactive) | 30.1 µM (inactive) | 19.5 µM (inactive) | 19.8 µM (inactive) | > 100 µM (inactive) | 18.1 µM (inactive) | 34 µM (inactive) |  | 
2 | Cc1nc2ccccc2[nH]/c1=N/Nc1ccccc1 | 22.7 µM (inactive) | 4.23 µM (inactive) | 4.17 µM (inactive) | 3.73 µM (inactive) |  | 0.0417 µM (active) | 8.2 µM (inactive) | 17.9 µM (inactive) | 31.8 µM (inactive) |  | > 100 µM (inactive) | 25.8 µM (inactive) | 26.1 µM (inactive) | 19.5 µM (inactive) | 11.7 µM (inactive) | 18.1 µM (inactive) | 21.5 µM (inactive) | 16.3 µM (inactive) | 3.8 µM (inactive)
3 | COc1ccc(N2C(=O)C3c4[nH]c5ccccc5c4C4CCC(c5ccccc5)CC4C3C2=O)cc1 (configuration not stated) | 57.3 µM (inactive) | 6 µM (inactive) | 25.1 µM (inactive) | 30.8 µM (inactive) | 26.6 µM (inactive) | > 57.5 µM (inactive) | 18.5 µM (inactive) | 11.2 µM (inactive) | 29 µM (inactive) | 10.2 µM (inactive) | 12.8 µM (inactive) | > 39.8 µM (inactive) | 10.2 µM (inactive) | 52.8 µM (inactive) |  | 19.8 µM (inactive) | 26.5 µM (inactive) | 24.8 µM (inactive) | 16.1 µM (inactive)
4 | CC(=O)O[C@@H]1[C@H]2O[C@H]2[C@H]2O[C@@]2(COC(=O)c2ccccc2)[C@H]1OC(C)=O | 73.5 µM (inactive) | > 100 µM (inactive) | > 100 µM (inactive) | 35.8 µM (inactive) | 32.1 µM (inactive) | > 100 µM (inactive) | > 100 µM (inactive) | > 100 µM (inactive) | > 100 µM (inactive) |  | > 100 µM (inactive) | > 100 µM (inactive) | > 100 µM (inactive) | > 100 µM (inactive) | > 100 µM (inactive) | > 100 µM (inactive) | > 100 µM (inactive) | > 100 µM (inactive) | > 100 µM (inactive)
5 | COC1=C(OC)C(=O)C(Cc2c(Cl)nc3n2CCS3)=C(C)C1=O | 17.2 µM (inactive) | 2.81 µM (inactive) | 12.1 µM (inactive) | 16.9 µM (inactive) | 1.36 µM (inactive) | 17 µM (inactive) | 6.53 µM (inactive) | 15.5 µM (inactive) | 18.9 µM (inactive) | 17.4 µM (inactive) | 15.6 µM (inactive) | 11.7 µM (inactive) | 11.6 µM (inactive) | 13.9 µM (inactive) | 2.3 µM (inactive) | 12.3 µM (inactive) | 15.3 µM (inactive) | 12.1 µM (inactive) | 
6 | CCOc1ccc(NC(=O)C(=O)C(/C(=N/N)C(=O)OC)c2nc3ccc([N+](=O)[O-])cc3nc2O)cc1 (configuration not stated) | > 100 µM (inactive) | > 100 µM (inactive) | > 100 µM (inactive) | > 100 µM (inactive) | > 100 µM (inactive) | > 100 µM (inactive) | 24.2 µM (inactive) | > 100 µM (inactive) | > 100 µM (inactive) | 36.1 µM (inactive) | > 100 µM (inactive) | > 100 µM (inactive) | > 100 µM (inactive) | > 100 µM (inactive) |  | > 100 µM (inactive) | > 100 µM (inactive) | > 100 µM (inactive) | > 100 µM (inactive)
7 | CNn1c(-c2ccccc2)n[nH]c1=O | > 100 µM (inactive) | > 100 µM (inactive) | > 100 µM (inactive) | > 100 µM (inactive) | > 100 µM (inactive) | > 100 µM (inactive) | > 100 µM (inactive) | > 100 µM (inactive) | > 100 µM (inactive) |  | > 100 µM (inactive) | > 100 µM (inactive) | > 100 µM (inactive) | > 100 µM (inactive) | > 100 µM (inactive) | > 100 µM (inactive) | > 100 µM (inactive) | > 100 µM (inactive) | > 100 µM (inactive)
8 | C[C@@H](NC(=O)OC1C=CC2(CC1)C(=O)N(C)c1ccccc12)c1cccc2ccccc12 (some centres not stated) | > 25 µM (inactive) | 14.7 µM (inactive) | 12 µM (inactive) | 4.86 µM (inactive) | 5.93 µM (inactive) | > 25 µM (inactive) | 8.79 µM (inactive) | 15.1 µM (inactive) | > 25 µM (inactive) |  | > 25 µM (inactive) | 4.56 µM (inactive) | 5.24 µM (inactive) | 15.5 µM (inactive) | 0.944 µM (active) | 12.2 µM (inactive) | 12.8 µM (inactive) | > 25 µM (inactive) | > 25 µM (inactive)
9 | O=C(Sc1c(-c2ccccc2)c(=O)n(-c2ccccc2)c(=S)n1-c1ccccc1)c1ccc(Cl)cc1 | > 100 µM (inactive) | 32.5 µM (inactive) | > 100 µM (inactive) | 63 µM (inactive) | 49.3 µM (inactive) | > 100 µM (inactive) |  | 75 µM (inactive) | 98.9 µM (inactive) | > 100 µM (inactive) | > 100 µM (inactive) | > 100 µM (inactive) | 81.5 µM (inactive) | > 100 µM (inactive) | > 100 µM (inactive) | > 100 µM (inactive) | > 100 µM (inactive) | > 100 µM (inactive) | 55.6 µM (inactive)
10 | CC1CCc2c(c(CC3CC(=O)NC(=O)C3)nn2-c2ccccc2)C1 (configuration not stated) | > 100 µM (inactive) | > 100 µM (inactive) | > 100 µM (inactive) | > 100 µM (inactive) | > 100 µM (inactive) | > 100 µM (inactive) | 80.5 µM (inactive) | > 100 µM (inactive) | > 100 µM (inactive) | > 100 µM (inactive) | > 100 µM (inactive) | > 100 µM (inactive) |  | > 100 µM (inactive) | > 100 µM (inactive) | > 100 µM (inactive) | > 100 µM (inactive) | 76.2 µM (inactive) | > 100 µM (inactive)
11 | Cc1ccc(C)c(COCCOCn2ccc(N)nc2=O)c1 | > 100 µM (inactive) | 0.785 µM (active) | > 100 µM (inactive) | > 100 µM (inactive) | > 100 µM (inactive) |  |  | > 100 µM (inactive) | > 100 µM (inactive) | > 100 µM (inactive) | > 100 µM (inactive) | > 100 µM (inactive) | > 100 µM (inactive) | > 100 µM (inactive) | 18.5 µM (inactive) | > 100 µM (inactive) | > 100 µM (inactive) | > 100 µM (inactive) | > 100 µM (inactive)
12 | Nc1ccc2c(c1)C1Oc3ccccc3CC1CO2 (configuration not stated) | > 100 µM (inactive) | > 100 µM (inactive) | > 100 µM (inactive) | > 100 µM (inactive) | > 100 µM (inactive) | > 100 µM (inactive) | > 100 µM (inactive) | > 100 µM (inactive) | > 100 µM (inactive) |  | > 100 µM (inactive) | > 100 µM (inactive) | > 100 µM (inactive) | > 100 µM (inactive) | > 100 µM (inactive) | > 100 µM (inactive) | > 100 µM (inactive) | > 100 µM (inactive) | > 100 µM (inactive)
13 | OC(c1nc2ccccc2[nH]1)C(O)C(O)C(O)c1nc2ccccc2[nH]1 (configuration not stated) | > 100 µM (inactive) |  | > 100 µM (inactive) | > 100 µM (inactive) | > 100 µM (inactive) | > 100 µM (inactive) | > 100 µM (inactive) | > 100 µM (inactive) | > 100 µM (inactive) | > 100 µM (inactive) | > 100 µM (inactive) | > 100 µM (inactive) | > 100 µM (inactive) | > 100 µM (inactive) | > 100 µM (inactive) |  | > 100 µM (inactive) | > 100 µM (inactive) | > 100 µM (inactive)
14 | FC(F)(F)c1ccc2c(c1)nc(-c1ccc(Cl)cc1)n2CC1CCCN2CCCCC12 (configuration not stated) | 14.9 µM (inactive) | 10.8 µM (inactive) | 9.91 µM (inactive) | 14.4 µM (inactive) | 0.233 µM (active) | 4.98 µM (inactive) |  |  | 14.2 µM (inactive) | 13.9 µM (inactive) | 14.9 µM (inactive) | 14.3 µM (inactive) | 13.2 µM (inactive) | 15.7 µM (inactive) | 11.8 µM (inactive) |  | 14.8 µM (inactive) | 14.8 µM (inactive) | 12.8 µM (inactive)
15 | Nc1nc(O)c2ncn(C3C=CC(CO)C3)c2n1 (configuration not stated) | > 100 µM (inactive) |  | > 100 µM (inactive) | > 100 µM (inactive) |  | > 100 µM (inactive) | > 100 µM (inactive) | > 100 µM (inactive) | > 100 µM (inactive) | > 100 µM (inactive) | > 100 µM (inactive) | > 100 µM (inactive) | > 100 µM (inactive) | > 100 µM (inactive) |  | > 100 µM (inactive) | > 100 µM (inactive) | > 100 µM (inactive) | > 100 µM (inactive)
